Source: patent US12459951B2, “Compounds that interact with RAS superfamily proteins for treatment of cancers, inflammatory diseases, rasopathies, and fibrotic disease” (SHY Therapeutics, LLC, priority 2022, dated 2025)

Tests used:
IL6 = test: IL-6 Quantification Assay (ELISA), LPS-stimulated RAW 264.7; format: cell-based; design: inhibition: dose or concentration left out as unconfirmed; conditions: Mus musculus, RAW264.7; read-out: IL-6: % inh.
Akt phosphorylation = test: Akt Phosphorylation Assay (western blot), Panc-1; format: cell-based, human; conditions: at 10 μM, * = activation
In short: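 Phospho-Akt (Ser473) was measured by western blot in lysates of KRas G12D Panc-1 cells exposed to test compound for 6 h at 37 °C, either at 10 μM final with 0.3% DMSO or as serial dilutions for IC50. One format used overnight 0.5% FBS starvation followed by a 15 min pulse of 1.5 ng/ml EGF. The other used cells in 10% FBS with no stimulation.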

[1] = tested on: Smad2/Smad3 phosphorylation; test: Phospho-Smad2/3 Inhibition Assay (western blot), Panc-1; format: cell-based, human; conditions: at 10 μM, Panc-1 pancreatic cancer cell line; starred symbols = activation
In short: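 Western blotting of lysates (15-50 μg protein) read phosphorylation of Smad2 Ser465/467 and Smad3 Ser423/425. Before lysis, Panc-1 cells got 1 h of 10 ng/ml TGF-b1 following 3 h compound exposure at 37° C (10 μM final, or serial dilutions for IC50, 0.3% DMSO) after overnight 0.5% FBS starvation.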

Compound: Cc1c(-c2ccn(C)n2)cn2nc(-c3nccn3C)nc(Nc3cc(-c4ccncc4)[nH]n3)c12 [Compound 266, 5-Methyl-2-(1-methyl-1H-imidazol-2-yl)-6-(1-methyl-1H-pyrazol-3-yl)-N-(5-(pyridin-4-yl)-1H-pyrazol-3-yl)pyrrolo[2,1-f][1,2,4]triazin-4-amine]
- inhibition (IL6): 25 to 49%
- % inh of Akt phosphorylation in Panc-1 (Akt phosphorylation): D* (85-100% activation)
- % inh of Smad2/3 phosphorylation in Panc-1 [1]: D* (D* = 76-100% activation)

Compound: Cc1[nH]nc(Nc2nc(-c3nccn3C)nn3cc(-c4ccn(C)n4)c(C)c23)c1C [Compound 267, N-(4,5-Dimethyl-1H-pyrazol-3-yl)-5-methyl-2-(1-methyl-1H-imidazol-2-yl)-6-(1-methyl-1H-pyrazol-3-yl)pyrrolo[2,1-f][1,2,4]triazin-4-amine]
- inhibition (IL6): 50 to 74%
- % inh of Akt phosphorylation in Panc-1 (Akt phosphorylation): D* (85-100% activation)
- % inh of Smad2/3 phosphorylation in Panc-1 [1]: B (B = 26-45% inhibition)

Compound: Cc1c(-c2ccn(C)n2)cn2nc(-c3nccn3C)nc(Nc3cc(C(C)C)[nH]n3)c12 [Compound 268, N-(5-Isopropyl-1H-pyrazol-3-yl)-5-methyl-2-(1-methyl-1H-imidazol-2-yl)-6-(1-methyl-1H-pyrazol-3-yl)pyrrolo[2,1-f][1,2,4]triazin-4-amine]
- inhibition (IL6): 75 to 100%
- % inh of Akt phosphorylation in Panc-1 (Akt phosphorylation): D* (85-100% activation)
- % inh of Smad2/3 phosphorylation in Panc-1 [1]: C (C = 46-75% inhibition)

Compound: COc1cccc(-c2cn3nc(-c4nccn4C)nc(N[C@H]4C[C@@H](OC)C4)c3c2-c2ccccc2)c1C [Compound 269, 6-(3-Methoxy-2-methylphenyl)-N-((1s,3s)-3-methoxycyclobutyl)-2-(1-methyl-1H-imidazol-2-yl)-5-phenylpyrrolo[2,1-f][1,2,4]triazin-4-amine]
- inhibition (IL6): 75 to 100%
- % inh of Akt phosphorylation in Panc-1 (Akt phosphorylation): C (50-84% inhibition)
- % inh of Smad2/3 phosphorylation in Panc-1 [1]: D (D = 76-100% inhibition)

Compound: COc1ccc(F)c(-c2cn3nc(-c4nccn4C)nc(N[C@H]4C[C@H](OC)C4)c3c2-c2ccccc2)c1F [Compound 273, 6-(2,6-Difluoro-3-methoxyphenyl)-N-((1r,3r)-3-methoxycyclobutyl)-2-(1-methyl-1H-imidazol-2-yl)-5-phenylpyrrolo[2,1-f][1,2,4]triazin-4-amine]
- inhibition (IL6): 75 to 100%
- % inh of Akt phosphorylation in Panc-1 (Akt phosphorylation): D (85-100% inhibition)
- % inh of Smad2/3 phosphorylation in Panc-1 [1]: D (D = 76-100% inhibition)

Compound: COc1cccc(-c2cn3nc(-c4nccn4C)nc(N[C@H]4C[C@H](OC)C4)c3c2-c2ccccn2)c1C [Compound 274, 6-(3-Methoxy-2-methylphenyl)-N-((1r,3r)-3-methoxycyclobutyl)-2-(1-methyl-1H-imidazol-2-yl)-5-(pyridin-2-yl)pyrrolo[2,1-f][1,2,4]triazin-4-amine]
- inhibition (IL6): 75 to 100%
- % inh of Akt phosphorylation in Panc-1 (Akt phosphorylation): D (85-100% inhibition)
- % inh of Smad2/3 phosphorylation in Panc-1 [1]: D (D = 76-100% inhibition)

Compound: CO[C@H]1C[C@H](Nc2nc(-c3nccn3C)nn3cc(-c4ccn(C)n4)c(C4CC4)c23)C1 [Compound 275, 5-Cyclopropyl-N-((1r,3r)-3-methoxycyclobutyl)-2-(1-methyl-1H-imidazol-2-yl)-6-(1-methyl-1H-pyrazol-3-yl)pyrrolo[2,1-f][1,2,4]triazin-4-amine]
- inhibition (IL6): 0%
- % inh of Akt phosphorylation in Panc-1 (Akt phosphorylation): D* (85-100% activation)
- % inh of Smad2/3 phosphorylation in Panc-1 [1]: B (B = 26-45% inhibition)

Compound: COc1ccnc(Nc2nc(-c3nccn3C)nn3cc(-c4ccn(C)n4)c(C4CC4)c23)c1 [Compound 276, 5-Cyclopropyl-N-(4-methoxypyridin-2-yl)-2-(1-methyl-1H-imidazol-2-yl)-6-(1-methyl-1H-pyrazol-3-yl)pyrrolo[2,1-f][1,2,4]triazin-4-amine]
- inhibition (IL6): 50 to 74%
- % inh of Akt phosphorylation in Panc-1 (Akt phosphorylation): D* (85-100% activation)
- % inh of Smad2/3 phosphorylation in Panc-1 [1]: B (B = 26-45% inhibition)
